Source: PMC8044163, “Vitamin D and lumisterol derivatives can act on liver X receptors (LXRs)” (Scientific Reports, 2021)

Experiments:
[1] = test system: genes downstream of LXR; experiment: qPCR of genes downstream of LXR in murine dermal fibroblasts; assay type: cell-based, mouse; conditions: 10^–7 M, 24 h
Method: All animal studies followed guidelines outlined by the NIH Guide for the Care and Use of Laboratory Animals and protocols were approved by the Institutional Animal Care and Use Committee at the NIEHS or the UAB. The study was carried out in compliance with the ARRIVE guidelines (http://www.nc3rs.org.uk/page.asp?id=1357). Skin samples from newborn C57BL/6 mice were collected at the NIEHS. Dermal fibroblasts were isolated from the skin of newborn mice, 1–2 day old. Briefly, we followed the protocols described previously. The skin was washed in PBS, cut into smaller pieces and incubated in 2.4 U/ml of dispase II (Roche) overnight at 4 °C. The dermis was separated from the epidermis and incubated in 0.1% collagenase (Roche) at 4 °C overnight. Next day, it was cut into smaller pieces and incubated for 1 h in 0.25% Trypsin (CellGrow) at 37 °C. Single cell suspension was prepared by pipetting and draining through a cell strainer. After centrifugation, cell pellets were suspended in DMEM medium containing 10% charcoal-stripped fetal bovine serum (cFBS), mouse fibroblasts growth factor (FGF) and 1% antibiotic, and inoculated into tissue culture dishes (Midwest Scientific, TPP). Cells, in early passages, from different mice were pooled together to provide representative samples for experiments. Fibroblasts were cultured in Petri dishes (10 cm in diameter) in DMEM and 10% cFBS and triplicate semi-confluent cultures were treated as described.
RNA isolated from either fibroblasts, HaCaT cells or brain was submitted for cDNA synthesis (High Capacity cDNA Reverse Transcription Kit with RNase Inhibitor, Applied Biosystems) following the manufacturers’ protocols. RT-PCR was carried out using Cyber green, in triplicates; as previously described. Approximately, 750 ng of cDNA was used for PCR reactions. GAPDH and CIC-B were used as internal controls. Primer sequences are listed in Supplementary Table 27. Data were analyzed using GraphPad Prism statistical software one way ANOVA or t-test, where appropriate; *p < 0.05; **p < 0.01; ***p < 0.001.

[2] = test system: LXRα/β; experiment: Ligand induced translocation of LXRα/β to the nucleus, imaging flow cytometry in HaCaT; assay type: cell-based, human; conditions: 10^–7 M, 12 h
Method: HaCaT cells were plated in DMEM plus 5% cFBS either on a sterile glass cover slip placed in a well of a 6-well plates for immunofluorescence (IF) assays or TPP Petri dishes for image-stream flow cytometry, and treated with 10^–7 M D3- or L3-hydroxyderivatives or 0.1% ethanol (vehicle) as a negative control was added to each well, and the cells were incubated for 12 or 24 h at 37 °C with 5% CO2. For IF the cells were fixed in 4% paraformaldehyde for 15 min, incubated in 0.5% Triton X-100 in phosphate-buffered saline (PBS) for 5 min, and washed 3 times in PBS. After blocking with 2% bovine serum albumin (BSA) in PBS for 1 h at room temperature, the cells were treated with an anti-LXRα antibody (Novus Biologicals, LLC, Centennial, CO) at 1:200 in PBS supplemented with 2% BSA overnight in 4 °C. After washing the slides were incubated with a mouse anti-rabbit IgG-FITC (Santa Cruz Biotechnology, Inc, Dallas, TX) at 1:200 dilution for 1.5 h at 37 °C. After washing the slides were mounted using propidium iodide (PI) (Vector Labs, Burlingame, California) as a nuclear counterstain. The slides were examined using a KEYENCE America BZ-X710 Fluorescence Microscope (Itasca, IL). The images were subsequently analyzed using the JACoP plugin for colocalization analysis with ImageJ[74]. Five separate high-power field (40×) images were converted to grayscale and analyzed for each condition. Manders’ coefficient (M1), calculated using a preset threshold, was used to quantify the degree of colocalization between PI and LXRα with 0 representing no colocalization, and 1 representing perfect colocalization.
For Image Stream II (Amnis, Seattle, WA, USA) cytometer analyses, HaCaT cells were detached and processed as previously described. The cells were fixed with paraformaldehyde and permeabilized in methanol containing buffer[78],[79] and Hoechst stain (r37165, ThermoFisher) and rabbit antibodies to LXRα/β (sc 377260, AF 647, SantaCruz) or VDR (sc-13133, AF 488, SantaCruz) as described previously. Data were analyzed using IDEAS software (Amnis, Seattle, WA, USA).

[3] = target: T1, LBD of LXRα (Homo sapiens, UniProt Q13133); experiment: LanthaScreen TR-FRET LXRα coactivator assay (LXR binding assay); assay type: biochemical; conditions: average values; for IC50: inverse agonist; for EC50: agonist, read-out: LXRα EC50
T1 construct: after addition of LXRα/β-LBD to the derivatives; purchased Thermo Fisher Scientific
T1 sequence (Q13133 209-447 limits assumed): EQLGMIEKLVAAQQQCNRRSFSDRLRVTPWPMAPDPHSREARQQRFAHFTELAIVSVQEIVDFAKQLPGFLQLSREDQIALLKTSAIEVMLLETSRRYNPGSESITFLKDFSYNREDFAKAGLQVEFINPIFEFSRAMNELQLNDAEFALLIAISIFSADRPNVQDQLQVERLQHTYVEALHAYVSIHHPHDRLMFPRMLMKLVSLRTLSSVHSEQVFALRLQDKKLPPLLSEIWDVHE
Method: Binding assays of graded concentrations of vitamin D3 or lumisterol hydroxyderivatives to LXRα/β were performed using the LanthaScreen TR-FRET LXRα/β Coactivator kit (Thermo Fisher Scientific, Inc., Waltham, MA) following the manufacture’s protocol. Briefly, after addition of LXRα/β-LBD to the derivatives, a mixture of peptide (Fluorescein-TRAP220/DRIP-2 for LXRα or Fluorescein-D22 for LXRβ) and antibody (Tb-anti-GST) was added to the reaction followed by incubation in room temperature for 2 h. TR-FRET ratio was calculated by dividing the emission at 520 nm by the emission at 495 nm using Synergy neo2 (BioTek, Winooski, VT).

SMILES | Cyp7a1 expression [1] | Fas (fatty acid synthase) expression [1] | translocation of LXRα/β from the cytoplasm to the nucleus [2] | IC50 [3] [nM] | Abcg8 expression [1] | ApoE (apolipoprotein E) expression [1] | EC50 [3] [nM]
C=C1C(=CC=C2CCCC3(C)C2CCC3C(C)(O)CC(O)CC(C)C)CC(O)CC1O (stereo not drawn) [1,20,23(OH)3D3] | inhibited | stimulated | increased translocation | 2100 |  |  | 
C=C1/C(=C\C=C2/CCC[C@]3(C)[C@@H]([C@H](C)CCCC(C)(C)O)CC[C@@H]23)C[C@@H](O)C[C@@H]1O [1,25(OH)2D3, reference compound] | stimulated | stimulated | increased translocation | 1100 |  |  | 
CC(C)CCC[C@](C)(O)[C@H]1CC[C@H]2[C@@H]3CC=C4C[C@@H](O)CC[C@]4(C)[C@H]3CC[C@@]21C [20(OH)C, 20-hydroxycholesterol, reference compound] | inhibited |  |  |  | inhibited | inhibited | 
C=C1CC[C@H](O)C/C1=C/C=C1\CCC[C@@]2(C)[C@H]1CC[C@@H]2[C@@](C)(O)CCCC(C)C [20(OH)D3] | stimulated | stimulated | increased translocation |  |  |  | 15
C=C1CCC(O)CC1=CC=C1CCCC2(C)C1CCC2C(C)(O)CC(O)CC(C)C (stereo not drawn) [20,23(OH)2D3] |  |  |  |  | induced | enhanced | 1100
